{"source": "ChEMBL document CHEMBL5729501", "about": "“Isoindolines as HDAC inhibitors” (2022)", "target": "T1, Histone deacetylase 11 (Homo sapiens, UniProt Q96DB2)", "T1 sequence (Q96DB2 whole entry)": "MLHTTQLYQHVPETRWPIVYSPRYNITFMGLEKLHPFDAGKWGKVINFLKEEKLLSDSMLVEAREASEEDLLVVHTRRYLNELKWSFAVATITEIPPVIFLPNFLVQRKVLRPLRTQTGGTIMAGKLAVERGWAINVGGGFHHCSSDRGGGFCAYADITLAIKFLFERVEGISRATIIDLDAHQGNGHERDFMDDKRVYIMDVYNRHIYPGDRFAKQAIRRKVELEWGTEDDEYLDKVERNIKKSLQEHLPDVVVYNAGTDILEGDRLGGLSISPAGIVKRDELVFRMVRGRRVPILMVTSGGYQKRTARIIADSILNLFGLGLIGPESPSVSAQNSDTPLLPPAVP", "assay": "In Vitro Histone Deacetylase Assay II: The measurement of HD AC 11 deacetylase activity was performed using an electrophoretic mobility shift assay by Nanosyn (Santa Clara, Calif.). Full length human recombinant HD AC 11 protein was expressed in baculoviral system and purified by affinity chromatography. The enzymatic reactions were assembled in 384 well plates in a total volume of 25 μL in a reaction buffer composing: 100 mM HEPES, pH 7.5, 25 mM KCl, 0.1% bovine serum albumin, 0.01% Triton X-100, 1% DMSO (from compounds), 2 μM of the fluorescently labeled peptide substrate and enzyme. The enzyme was added at a final concentration of 10 nM. The peptide substrate FAM-RHKK(tri-fluor-Ac)—NH2 was used. The compounds were tested at 12 concentrations spaced by 3× dilution intervals. Negative control samples (0%-inhibition in the absence of inhibitor) and positive control samples (100%-inhibition) were assembled in replicates of four in each assay plate. The reactions were incubated at 25° C. and quenched by the addition of 45 μL of termination buffer (100 mM HEPES, pH 7.5, 0.01% Triton X-100, 0.05% SDS).The terminated assay plates were analyzed on LabChip® 3000 microfluidic electrophoresis instrument (Perkin Elmer/Caliper Life Sciences). The fluorescence intensity of the electrophoretically separated de-acetylated product and substrate peptide was measured. […]"}
{"molecule": "O=C(NO)c1cccc2c1CN(c1nc3ccccc3[nH]1)C2", "values": [{"measurement": "IC50", "value": "< 500", "unit": "nM"}]}
